From US5863899A (priority 1994, dated 1999) come the findings set out here.

Data set [1] addresses T1, purified human neutrophil elastase (HNE) (Homo sapiens, UniProt P08246).
T1 sequence (P08246 30-247 limits assumed): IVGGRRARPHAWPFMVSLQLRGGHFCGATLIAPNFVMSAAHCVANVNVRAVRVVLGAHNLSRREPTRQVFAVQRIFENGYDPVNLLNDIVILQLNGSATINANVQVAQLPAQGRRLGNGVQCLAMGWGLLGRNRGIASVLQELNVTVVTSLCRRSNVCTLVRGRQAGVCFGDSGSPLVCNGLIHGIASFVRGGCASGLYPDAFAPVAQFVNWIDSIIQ
In words: neutrophil elastase inhibition with chromogenic substrate MOS-AAPV-pNA. In kind it is biochemical.

Data set [2] deals with T2, BK2-receptor (Rattus norvegicus, UniProt P25023).
T2 sequence (P25023 1-396): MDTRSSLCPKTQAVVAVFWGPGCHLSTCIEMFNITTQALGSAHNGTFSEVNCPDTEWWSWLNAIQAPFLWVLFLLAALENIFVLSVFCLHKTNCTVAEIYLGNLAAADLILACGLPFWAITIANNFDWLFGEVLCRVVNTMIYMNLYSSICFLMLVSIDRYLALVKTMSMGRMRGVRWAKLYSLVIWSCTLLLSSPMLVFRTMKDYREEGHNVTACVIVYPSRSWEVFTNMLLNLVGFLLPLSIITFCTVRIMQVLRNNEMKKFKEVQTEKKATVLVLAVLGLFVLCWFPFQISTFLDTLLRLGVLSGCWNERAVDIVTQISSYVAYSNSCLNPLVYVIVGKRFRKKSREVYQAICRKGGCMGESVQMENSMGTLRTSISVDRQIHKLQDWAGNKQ

Data set [3] has as its target T2, BK2-receptor. Briefly: cell-based.
Data set [4] deals with mice injected in the hind limb foot pad with formalin. Briefly: mouse formalin test (model of inflammatory and neurogenic pain). In kind it is in vivo. To be noted: for narcotic / behavioral effects in the formalin test: oxymorphone: highest doses 0.9 and 3.0 umoles/kg, CP-0494: over several hours. The procedure: In order to test the activity of these compounds in vivo, a model of inflammatory and neurogenic pain was used. This model measures the behavioral responses of mice injected in the hind limb foot pad with 50 ul of formalin. Control mice (open circles) show a characteristic bi-phasic response to the injected formalin wherein there is a short lasting initial response followed by a quiescent period which is then followed by a sustained period of hind limb licking. The licking behavior is interpreted to mean that the limb is irritated and painful. The greater the time spent licking, the more painful the stimulus.

The nature of data set [5]: in vitro. The procedure:
Unfortunately, there are no established animal models that can be employed to assess combined BKAn and NEI activity in vivo. Therefore, in order to assess the potential for in vivo hydrolysis of the intact heterodimer, an in vitro "surrogate" system was employed wherein the parent heterodimer (CP-0502) was incubated with human plasma and the resulting metabolites analyzed by reverse phase HPLC.
CP-0502 was added to freshly obtained normal human plasma and allowed to incubate at 37° C. for varying amounts of time. At the designated time the samples were treated with acidified (0.1N HCl) acetonitrile in order to precipitate the plasma proteins. Aliquots (75 ul) of the supernatents were then analyzed on a Vydac C-18 reverse phase HPLC column using 24% to 80% acetonitrile gradient in 0.1% TFA. The eluent was monitored at 214 nm.

Data set [6] has as its system rat lung parenchymal strips (cyclooxygenase dependent contraction). Briefly: rat lung parenchymal strips challenged with arachidonic acid. To be noted: contraction in response to exogenously applied arachidonic acid. It is filed as cell-based. The source says: As mentioned previously, for the COI to work it may need to be dissociated from the BKAn so as to allow for its intracellular penetration. Therefore, in order to evaluate the functional activity of a BKAn/COI heterodimer, CP-0460 was exposed to rat lung parenchymal strips which were then challenged with arachidonic acid. This tissue is known to contain both non-specific esterase activity as well as to convert arachidonic acid to thromboxane (via a cyclooxygenase dependent pathway) which is then ultimately responsible for the smooth muscle contraction observed in this assay.

Data set [7] concerns the target mu-opiate receptor (Cavia porcellus, UniProt A0ACM8Q262). In words: electrically stimulated guinea pig ileum assay. It is filed as cell-based. To be noted: in vitro mu-opiate receptor agonist activity.
A short description of data set [8]: freshly obtained normal human plasma. To be noted: 37° C., up to 180 minutes.
[9] abbreviates: Table II, MOS-AAPV-pNA 0.5 mM, pH 7.5, 25 C.

Read-outs that look alike come from different tables or passages of the source. Square brackets hold non-standard residues; d marks the D form. Peptide text beside a SMILES is read from it. * marks the point of attachment. X13 = COc1ccc2c3c1O[C@H]1C(NC(=O)CNC(=O)CCSC4CC(=O)N(CCCCCCN5C(=O)CC(*)C5=O)C4=O)CC[C@@]4(O)[C@@H](C2)N(C)CC[C@]314; X9 = COc1ccc2c3c1O[C@H]1C(NCCSC4CC(=O)N(CCCCCCN5C(=O)CC(*)C5=O)C4=O)CC[C@@]4(O)[C@@H](C2)N(C)CC[C@]314; X1 = CN1CC[C@]23c4c5ccc(O)c4O[C@H]2C(NCCSC2CC(=O)N(CCCCCCN4C(=O)CC(*)C4=O)C2=O)CC[C@@]3(O)[C@H]1C5; X4 = CC(C)(C)c1ccc(C(C)(C)C(=O)Oc2ccc(S(=O)(=O)CCCC(=O)OCCCCCCN3C(=O)CC(*)C3=O)cc2)cc1; X7 = COc1ccc2c(c1)c(CC(=O)OCCCCCCN1C(=O)CC(*)C1=O)c(C)n2C(=O)c1ccc(Cl)cc1; Oic = O=C(O)[C@@H]1C[C@@H]2CCCC[C@@H]2N1; Hyp = O=C(O)[C@@H]1C[C@@H](O)CN1; dTic = O=C(O)[C@H]1Cc2ccccc2CN1; 2Thi = N[C@@H](Cc1cccs1)C(=O)O; X20 = O=C1CC(*)C(=O)N1CCCCCCO

mu-opiate receptor, sequence (A0ACM8Q262 1-400): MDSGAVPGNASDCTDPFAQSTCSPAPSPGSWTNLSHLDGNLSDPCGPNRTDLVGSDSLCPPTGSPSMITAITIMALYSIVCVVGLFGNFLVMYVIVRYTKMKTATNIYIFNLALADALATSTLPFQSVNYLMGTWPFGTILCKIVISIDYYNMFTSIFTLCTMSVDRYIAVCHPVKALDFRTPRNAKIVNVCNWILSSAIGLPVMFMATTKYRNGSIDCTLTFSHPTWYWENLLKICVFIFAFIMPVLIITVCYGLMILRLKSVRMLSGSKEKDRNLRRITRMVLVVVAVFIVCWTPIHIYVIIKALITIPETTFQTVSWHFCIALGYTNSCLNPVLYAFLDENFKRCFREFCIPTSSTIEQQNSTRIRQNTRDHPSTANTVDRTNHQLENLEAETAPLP

By Ki is commonly meant a dissociation constant, usually derived from enzyme kinetics or from competition with a known ligand. Turning to `CC(C)(C)c1ccc(C(C)(C)C(=O)Oc2ccc(CCCC(=O)O)cc2)cc1` [CE-1218, 4-(3'-carboxy-propyl)phenyl 4-tert-butylphenylisobutyrate], in data set [1] (Table II, MOS-AAPV-pNA 0.5 mM, pH 7.5, 25 C, read-out: Ki^ss (HNE)), the Ki is 10.5 nM. In addition, the “pA2 -Rat Uterus” value in data set [2] (Table II) was “inactive”.
Turning to `CC(C)C[C@H](NC(=O)[C@@H](Cc1ccccc1)NC(=O)[C@H](CS)NC(=O)[C@H](Cc1ccccc1)NC(=O)CNC(=O)[C@@H]1C[C@@H](O)CN1C(=O)[C@@H]1CCCN1C(=O)[C@H](CCCNC(=N)N)NC(=O)[C@H](N)CCCNC(=N)N)C(=O)N[C@@H](CCCNC(=N)N)C(=O)O` [CP-0126, D R-R-P-J-G-F-C-D F-L-R] (HELM PEPTIDE1{[dR].R.P.[Hyp].G.F.C.[dF].L.R}$$$$V2.0), in data set [1] (setting [9]), the “Ki^ss (HNE)” value is “inactive”.
In data set [3], `N=C(N)NCCC[C@@H](N)C(=O)N[C@@H](CCCNC(=N)N)C(=O)N1CCC[C@H]1C(=O)N1C[C@H](O)C[C@H]1C(=O)NCC(=O)N[C@@H](Cc1cccs1)C(=O)N[C@@H](CS)C(=O)N1Cc2ccccc2C[C@@H]1C(=O)N1[C@H](C(=O)N[C@@H](CCCNC(=N)N)C(=O)O)C[C@@H]2CCCC[C@@H]21` [CP-0347, D R-R-P-J-G-Thi-C-D Tic-Oic-R] (H-[dR]RP[Hyp]G[2Thi]C[dTic][Oic]R-OH) showed a Kb of 0.316 nM.
On the same count and under the same terms, for `COc1ccc2c(c1)c(CC(=O)OCCCCCCN1C(=O)CC(SC[C@H](NC(=O)[C@H](Cc3ccccc3)NC(=O)CNC(=O)[C@@H]3C[C@@H](O)CN3C(=O)[C@@H]3CCCN3C(=O)[C@H](CCCNC(=N)N)NC(=O)[C@H](N)CCCNC(=N)N)C(=O)N[C@H](Cc3ccccc3)C(=O)N[C@@H](CC(C)C)C(=O)N[C@@H](CCCNC(=N)N)C(=O)O)C1=O)c(C)n2C(=O)c1ccc(Cl)cc1` (stereo partly shown) [CP-0460] (H-[dR]RP[Hyp]GFC(X7)[dF]LR-OH) the value was roughly 15.8 nM; for `COc1ccc2c3c1O[C@H]1C(NCCSC4CC(=O)N(CCCCCCN5C(=O)CC(SC[C@H](NC(=O)[C@H](Cc6ccccc6)NC(=O)CNC(=O)[C@@H]6C[C@@H](O)CN6C(=O)[C@@H]6CCCN6C(=O)[C@H](CCCNC(=N)N)NC(=O)[C@H](N)CCCNC(=N)N)C(=O)N[C@H](Cc6ccccc6)C(=O)N[C@@H](CC(C)C)C(=O)N[C@@H](CCCNC(=N)N)C(=O)O)C5=O)C4=O)CC[C@@]4(O)[C@@H](C2)N(C)CC[C@]314` (stereo partly shown) [CP-0477] (H-[dR]RP[Hyp]GFC(X9)[dF]LR-OH), 12.6 nM.
Regarding `CC(C)C[C@H](NC(=O)[C@@H](Cc1ccccc1)NC(=O)[C@H](CSC1CC(=O)N(CCCCCCO)C1=O)NC(=O)[C@H](Cc1ccccc1)NC(=O)CNC(=O)[C@@H]1C[C@@H](O)CN1C(=O)[C@@H]1CCCN1C(=O)[C@H](CCCNC(=N)N)NC(=O)[C@H](N)CCCNC(=N)N)C(=O)N[C@@H](CCCNC(=N)N)C(=O)O` (stereo partly shown) [CP-0487] (H-[dR]RP[Hyp]GFC(X20)[dF]LR-OH), the “Ki^ss (HNE)” value in data set [1] (setting [9]) is “inactive”. Further, the Kb in data set [3] is 3.98 nM.
Consider `COc1ccc2c3c1O[C@H]1C(NC(=O)CNC(=O)CCSC4CC(=O)N(CCCCCCN5C(=O)CC(SC[C@H](NC(=O)[C@H](Cc6ccccc6)NC(=O)CNC(=O)[C@@H]6C[C@@H](O)CN6C(=O)[C@@H]6CCCN6C(=O)[C@H](CCCNC(=N)N)NC(=O)[C@H](N)CCCNC(=N)N)C(=O)N[C@H](Cc6ccccc6)C(=O)N[C@@H](CC(C)C)C(=O)N[C@@H](CCCNC(=N)N)C(=O)O)C5=O)C4=O)CC[C@@]4(O)[C@@H](C2)N(C)CC[C@]314` (stereo partly shown) [CP-0488] (H-[dR]RP[Hyp]GFC(X13)[dF]LR-OH), for which the Kb in data set [3] was 6.31 nM.
Take `CC(C)C[C@H](NC(=O)[C@@H](Cc1ccccc1)NC(=O)[C@H](CSC1CC(=O)N(CCCCCCN2C(=O)CC(SCCNC3CC[C@@]4(O)[C@H]5Cc6ccc(O)c7c6[C@@]4(CCN5C)[C@H]3O7)C2=O)C1=O)NC(=O)[C@H](Cc1ccccc1)NC(=O)CNC(=O)[C@@H]1C[C@@H](O)CN1C(=O)[C@@H]1CCCN1C(=O)[C@H](CCCNC(=N)N)NC(=O)[C@H](N)CCCNC(=N)N)C(=O)N[C@@H](CCCNC(=N)N)C(=O)O` (stereo partly shown) [CP-0494] (H-[dR]RP[Hyp]GFC(X1)[dF]LR-OH): the “narcotic / behavioral effects in the formalin test” value in data set [4] is “no observable narcotic effects”. The same molecule showed a Kb in data set [3] of 3.98 nM.
As usually defined, the half-life is how long it takes for the measured level to halve. As for `CC(C)C[C@H](NC(=O)[C@@H](Cc1ccccc1)NC(=O)[C@H](CSC1CC(=O)N(CCCCCCOC(=O)CCCS(=O)(=O)c2ccc(OC(=O)C(C)(C)c3ccc(C(C)(C)C)cc3)cc2)C1=O)NC(=O)[C@H](Cc1ccccc1)NC(=O)CNC(=O)[C@@H]1C[C@@H](O)CN1C(=O)[C@@H]1CCCN1C(=O)[C@H](CCCNC(=N)N)NC(=O)[C@H](N)CCCNC(=N)N)C(=O)N[C@@H](CCCNC(=N)N)C(=O)O` (stereo partly shown) [CP-0502] (H-[dR]RP[Hyp]GFC(X4)[dF]LR-OH), the affinity in data set [1] corresponds to a Ki of 6.6 nM. The half-life in data set [5] (human, plasma (freshly obtained normal human plasma)) was roughly 1.88 h. The “hydrolysis in human plasma (HPLC)” value in data set [5] (normal human plasma, 37° C., to CP-0487 and its des-Arg9 derivative) is on record as “readily hydrolyzed”. In addition, in data set [3], the Kb is 31.6 nM.
Turning to `COc1ccc2c(c1)c(CC(=O)O)c(C)n2C(=O)c1ccc(Cl)cc1` [indomethacin], in data set [6], the “log dose ratio shift” value was 0.998+/-0.425. The “pA2, standard rat uterus assay” value in data set [2] (intact compound) is reported as “no effect on this assay at any concentration”.
As for `COc1ccc2c3c1O[C@H]1C(=O)CC[C@@]4(O)[C@@H](C2)N(C)CC[C@]314` [oxycodone], the “activity in guinea pig ileum assay” value in data set [7] was “neither oxycodone nor the heterodimers derived from oxycodone (CP-0477 and CP-0488) showed any activity”. Moreover, the “pA2 -Rat Uterus” value in data set [2] (Table I, BK2-receptor activity) was “inactive”.
On to `CN1CC[C@]23c4c5ccc(O)c4O[C@H]2C(=O)CC[C@@]3(O)[C@H]1C5` [oxymorphone], for which the “effect on licking behavior (both phases) in the formalin test” value in data set [4] (50 ul formalin in hind limb foot pad) was “reduces both phases of the licking behavior”. Besides, in data set [4] (mouse formalin test), the “dose at which both phases of the pain response are blocked” value was determined as 0.9 µmol/kg. In addition, in data set [4], the “narcotic / behavioral effects in the formalin test” value is “significant behavioral obtundation resulting in catalepsy and frank respiratory depression”. Besides, in data set [2] (Table I, BK2-receptor activity), the “pA2 -Rat Uterus” value was “inactive”.
Consider D R-R-P-J-G-F-C-D F-L-R, for which, in data set [8], the cleaved bond entry is reported as “Leu8-Arg9” and the fragment found entry is listed as “CP-0487”.
